How the values were obtained:
Assay in all cases: In vitro antibacterial evaluation: minimum inhibitory concentration (MIC), broth dilution method
Format in all cases: cell-based
Enterococcus sp. = tested on: Enterococcus sp.
Summary of the method: (§1)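 MIC read as lowest drug level preventing visible growth. Organisms at 5×10^5 CFU/mL were exposed to a 64-0.06 μg/mL dilution series in Muller-Hinton II […] following NCCLS broth dilution standard M7-A2.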

Escherichia coli = tested on: Escherichia coli
Summary of the method: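 An MIC is reported for each organism as the least concentration giving inhibition, using broth dilution over 64-0.06 μg/mL with a 5×10^5 CFU/mL inoculum.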

Staphylococcus sp. = conditions: broth dilution, 18 hours at 35° C.
Summary of the method: as §1

Streptococcus sp. = tested on: Streptococcus sp.
Summary of the method: as §1

CSc1ccc(C2OCC3OC(OC4C(CO)OC(Oc5ccc(CC6NC(=O)C(C(C)c7ccccc7)NC(=O)CNC(=O)C(CO)NC(=O)C(C(O)C7CNC(=N)N7C7OC(CO)C(O)C(O)C7O)NC(=O)C(C(O)C7CNC(=N)N7)NC6=O)cc5)C(O)C4O)C(O)C(O)C3O2)cc1 (stereo not shown) [Example 144]
2 µg/mL: MIC Enterococcus faecalis (ATCC 29212) (Enterococcus sp.; strain ATCC 29212) | MIC Enterococcus faecalis (GC 2242) (Enterococcus sp.; strain GC 2242) | MIC Enterococcus faecium (GC 2243) (Enterococcus sp.; strain GC 2243) | MIC Enterococcus faecalis (GC 2691) (Enterococcus sp.; strain GC 2691) | MIC Enterococcus faecalis (GC 4552) (Enterococcus sp.; strain GC 4552) | MIC Enterococcus faecium (GC 4556) (Enterococcus sp.; strain GC 4556) | MIC Enterococcus faecium (GC 4557) (Enterococcus sp.; strain GC 4557) | MIC Enterococcus faecalis (GC 6189) (Enterococcus sp.; strain GC 6189) | MIC Staphylococcus aureus (ATCC 29213) (Staphylococcus sp.; 5×10^5 CFU/mL) | MIC Staphylococcus aureus (ATCC 29213) (Staphylococcus sp.; strain ATCC 29213)
1 µg/mL: MIC Coagulase Negative Staphylococcus (GC 4547) (Staphylococcus sp.; 5×10^5 CFU/mL) | MIC Staphylococcus aureus (GC 1131) (Staphylococcus sp.; 5×10^5 CFU/mL) | MIC Staphylococcus aureus (GC 3051) (Staphylococcus sp.; 5×10^5 CFU/mL) | MIC Staphylococcus aureus (GC 3053) (Staphylococcus sp.; 5×10^5 CFU/mL) | MIC Staphylococcus aureus (GC 4545) (Staphylococcus sp.; 5×10^5 CFU/mL) | MIC Staphylococcus aureus-SMITH (GC 4543) (Staphylococcus sp.; 5×10^5 CFU/mL) | MIC Staphylococcus haemolyticus (GC 4546) (Staphylococcus sp.; 5×10^5 CFU/mL) | MIC Staphylococcus aureus (GC 1131) (Staphylococcus sp.; strain GC 1131) | MIC Staphylococcus aureus (GC 3051) (Staphylococcus sp.; strain GC 3051) | MIC Staphylococcus aureus (GC 3053) (Staphylococcus sp.; strain GC 3053) | MIC Staphylococcus aureus-SMITH (GC 4543) (Staphylococcus sp.; strain GC 4543) | MIC Staphylococcus aureus (GC 4545) (Staphylococcus sp.; strain GC 4545) | MIC Staphylococcus haemolyticus (GC 4546) (Staphylococcus sp.; strain GC 4546) | MIC Coagulase Negative Staphylococcus (GC 4547) (Staphylococcus sp.; strain GC 4547)
0.25 µg/mL: MIC Coagulase Negative Staphylococcus (GC 4548) (Staphylococcus sp.; 5×10^5 CFU/mL) | MIC Coagulase Negative Staphylococcus (GC 6257) (Staphylococcus sp.; 5×10^5 CFU/mL) | MIC Coagulase Negative Staphylococcus (GC 4548) (Staphylococcus sp.; strain GC 4548) | MIC Coagulase Negative Staphylococcus (GC 6257) (Staphylococcus sp.; strain GC 6257)
0.12 µg/mL: MIC Coagulase Negative Staphylococcus (GC 4549) (Staphylococcus sp.; 5×10^5 CFU/mL) | MIC Coagulase Negative Staphylococcus (GC 4549) (Staphylococcus sp.; strain GC 4549)
32 µg/mL: MIC Escherichia coli (ATCC 25922) (Escherichia coli; strain ATCC 25922) | MIC Escherichia coli (GC 4559) (Escherichia coli; strain GC 4559)
<0.06 µg/mL: MIC Streptococcus pneumoniae (ATCC 6301) (Streptococcus sp.; strain ATCC 6301) | MIC Streptococcus pneumoniae (GC 1894) (Streptococcus sp.; strain GC 1894) | MIC Streptococcus pyogenes (GC 4563) (Streptococcus sp.; strain GC 4563) | MIC Streptococcus agalactiae (GC 4564) (Streptococcus sp.; strain GC 4564) | MIC Streptococcus pneumoniae (GC 4565) (Streptococcus sp.; strain GC 4565)
4 µg/mL: MIC Enterococcus faecalis (GC 3059) (Enterococcus sp.; strain GC 3059) | MIC Enterococcus faecalis (GC 4553) (Enterococcus sp.; strain GC 4553) | MIC Enterococcus faecalis (GC 4554) (Enterococcus sp.; strain GC 4554) | MIC Enterococcus avium (GC 4558) (Enterococcus sp.; strain GC 4558) | MIC Staphylococcus aureus (GC 4544) (Staphylococcus sp.; 5×10^5 CFU/mL) | MIC Staphylococcus aureus (GC 4544) (Staphylococcus sp.; strain GC 4544)
0.5 µg/mL: MIC Coagulase Negative Staphylococcus (GC 4551) (Staphylococcus sp.; 5×10^5 CFU/mL) | MIC Staphylococcus aureus (GC 4541) (Staphylococcus sp.; 5×10^5 CFU/mL) | MIC Staphylococcus aureus (GC 4542) (Staphylococcus sp.; 5×10^5 CFU/mL) | MIC Staphylococcus aureus (GC 4541) (Staphylococcus sp.; strain GC 4541) | MIC Staphylococcus aureus (GC 4542) (Staphylococcus sp.; strain GC 4542) | MIC Coagulase Negative Staphylococcus (GC 4551) (Staphylococcus sp.; strain GC 4551)

Reference: US8247211B2, “Glycopeptide antibiotics” (American Cyanamid Company, priority 2001, dated 2012)
